Patent US12590097B2 (priority 2020, dated 2026)

Columns and labels:
in vitro = in vitro ADME; settings: human plasma containing 5 mM MgCl2, 37° C., LC-MS/MS; read-out: T1/2 (h) Plasma (converted)
Method: (§1) To 1 mL of human plasma containing 5 mM MgCl2 was added 2 μL of a solution of 50 mM compound to be tested in DMSO, and the mixture was incubated at 37° C. 100 μL of sample was taken at different time points, into which 200 μL of methanol was added, and the mixture was centrifuged at 14000 rpm at 4° C. for 30 min. 100 μL of supernatant was taken, into which 100 μL of methanol was added, and the mixture was frozen at −20° C. for later use.
(§2) The content of the compound to be tested in plasma or liver microsome was determined by LC-MS/MS, and the half-life was calculated. Instruments: Prominence 20 A liquid chromatograph from Shimadzu, API 4000 Q-TRAP mass spectrometer from Applied Biosystems; mass spectrometry conditions: ESI negative ion detection; chromatographic column: Diamonsil C18 (100×4.6 mm, 5 μm) chromatographic column; column temperature: 40° C.; flow rate: 0.5 mL/min. Mobile phase A: methanol; mobile phase B: 5% aqueous methanol solution (containing 2 mM ammonium formate); flow rate: 0.5 mL/min; gradient elution as shown in the following table: […]

[1] = Evaluation of metabolic stability in human liver microsome (human liver S9 components); type: in vitro ADME; settings: liver S9 components (headed liver microsome); human liver S9 components 4 mg/mL, pH 7.4, 37° C., LC-MS/MS; read-out: T1/2 (h) Liver microsome (converted)
Method: as §1, with “buffer” for “human plasma”, “MgCl2 and 50 mM K2HPO4 (pH 7.4)” for “MgCl2”, “DMSO, then human liver S9 components were added to reach 4 mg/mL,” for “DMSO,”, “300” for “200”, “rpm for 30 min” for “rpm”, “C.” for “C. for 30 min.”
as §2

[2] = Pharmacokinetic evaluation in beagle dogs; type: in vivo; settings: for Cmax: male, dog, po, plasma, intragastric, II-1 5 mg/kg, II-6 5.13 mg/kg, I-5-B 5.27 mg/kg, read-out: Cmax(ng/ml) Prodrug prototype
Method: Male beagle dogs (7-8 months old, weighing 7-10 kg) were randomly divided into groups (2 beagle dogs per group) and weighed. The beagle dogs were fasted for 12 h before administration. The sample to be tested at a certain concentration was ground and suspended in 0.5% sodium carboxymethylcellulose solution, and II-1 (5 mg/kg), II-6 (5.13 mg/kg) or I-5-B (5.27 mg/kg) was administered intragastrically to the beagle dogs. Before administration and 0.5 h, 1 h, 2 h, 4 h, 6 h, 8 h, 10 h and 24 h after administration, 0.5 mL of blood was collected from the cephalic vein of forelimb separately, anticoagulated with sodium heparin, centrifuged to separate out the plasma, which was stored at −80° C. for determination.
50 μL of drug-containing plasma was taken, into which 50 μL of methanol and 100 μL of internal-standard acetaminophen methanol solution were added, and the mixture was vortexed for 1 min and centrifuged at 12000 rpm for 10 min at 4° C. The supernatant was taken and placed in an internal insert tube for quantitative analysis by LC-MS/MS (the method was the same as that in Example 7).

hepatitis B = settings: ducks; disclosed in CN103804417A; cited from earlier work

C=C1[C@H](CO[P@@](=O)(N[C@@H](C)C(=O)OC)Oc2ccc(Br)cc2)[C@@H](O)C[C@@H]1n1cnc2c(=O)[nH]c(N)nc21 [II-4, 2-amino-1,9-dihydro-9-[(1S,3R,4S)-4-hydroxy-3-((S)-((S)-1-methoxycarbonylethylamino-(4-bromo-phenyl)oxy-phosphoryl)-oxymethyl)-2-methylenecyclopentyl]-6H-purin-6-one]
half-life at 100 µM (in vitro): 6.2 h
half-life at 100 µM [1]: 0.06 h

C=C1[C@H](CO[P@@](=O)(N[C@@H](C)C(=O)OC)Oc2ccc(Cl)cc2)[C@@H](O)C[C@@H]1n1cnc2c(=O)[nH]c(N)nc21 [II-3, 2-amino-1,9-dihydro-9-[(1S,3R,4S)-4-hydroxy-3-((S)-((S)-1-methoxycarbonylethylamino-(4-chloro-phenyl)oxy-phosphoryl)-oxymethyl)-2-methylenecyclopentyl]-6H-purin-6-one]
half-life at 100 µM (in vitro): 7.5 h
half-life at 100 µM [1]: 0.06 h

C=C1[C@H](CO[P@@](=O)(N[C@@H](C)C(=O)OC)Oc2ccc(OC)cc2)[C@@H](O)C[C@@H]1n1cnc2c(=O)[nH]c(N)nc21 [II-5, 2-amino-1,9-dihydro-9-[(1S,3R,4S)-4-hydroxy-3-((S)-((S)-1-methoxycarbonylethylamino-(4-methoxy-phenyl)oxy-phosphoryl)-oxymethyl)-2-methylenecyclopentyl]-6H-purin-6-one]
half-life at 100 µM (in vitro): 4.9 h
half-life at 100 µM [1]: 0.03 h

C=C1[C@H](CO[P@@](=O)(N[C@@H](C)C(=O)OC(C)C)Oc2ccccc2)[C@@H](O)C[C@@H]1n1cnc2c(=O)[nH]c(N)nc21 [I-5-B, 2-amino-1,9-dihydro-9-[(1S,3R,4S)-4-hydroxy-3-((S)-((S)-1-isopropoxycarbonylethylamino-phenoxy-phosphoryl)-oxymethyl)-2-methylenecyclopentyl]-6H-purin-6-one, reference compound]
half-life at 100 µM (in vitro): > 24 h
half-life at 100 µM [1]: 0.4 h
prodrug prototype present in plasma (in words) [2]: high concentration
transformation into the active form (in words) [2]: can not be completely transformed into the active form
Cmax [2]: 864 ng/mL
antiviral effect on hepatitis B in vivo (in words) (hepatitis B): good antiviral effect

C=C1[C@H](CO[P@@](=O)(N[C@@H](C)C(=O)OC)Oc2ccccc2)[C@@H](O)C[C@@H]1n1cnc2c(=O)[nH]c(N)nc21 [II-1, 2-amino-1,9-dihydro-9-[(1S,3R,4S)-4-hydroxy-3-((S)-((S)-1-methoxycarbonylethylamino-phenoxy-phosphoryl)-oxymethyl)-2-methylenecyclopentyl]-6H-purin-6-one]
half-life at 100 µM (in vitro): 15.3 h
half-life at 100 µM [1]: 0.27 h
plasma concentration of the prodrug prototype (in words, versus I-5-B) ([2]; intragastric administration): significantly lower than that of the I-5-B
Cmax [2]: 331 ng/mL

C=C1[C@H](CO[P@@](=O)(N[C@@H](C)C(=O)OC)Oc2ccc(C)cc2)[C@@H](O)C[C@@H]1n1cnc2c(=O)[nH]c(N)nc21 [II-6, 2-amino-1,9-dihydro-9-[(1S,3R,4S)-4-hydroxy-3-((S)-((S)-1-methoxycarbonylethylamino-(4-methyl-phenyl)oxy-phosphoryl)-oxymethyl)-2-methylenecyclopentyl]-6H-purin-6-one]
half-life at 100 µM (in vitro): 10.8 h
half-life at 100 µM [1]: 0.19 h
Cmax [2]: 633 ng/mL

C=C1[C@H](CO[P@@](=O)(N[C@@H](C)C(=O)OC)Oc2ccc(F)cc2)[C@@H](O)C[C@@H]1n1cnc2c(=O)[nH]c(N)nc21 [II-2, 2-amino-1,9-dihydro-9-[(1S,3R,4S)-4-hydroxy-3-((S)-((S)-1-methoxycarbonylethylamino-(4-fluoro-phenyl)oxy-phosphoryl)-oxymethyl)-2-methylenecyclopentyl]-6H-purin-6-one]
half-life at 100 µM (in vitro): 10.6 h
half-life at 100 µM [1]: 0.13 h
